Experimental data: patent publication EP0908457B1, “3-(1,2-benzisothiazol- and isoxazol-5-Y1)-2,4(1H,3H)-pyrimidinedione or thione and 3-(1,2-benzisothiazol- and isoxazol-5-y1)-4(3H)-pyrimidinone or thione herbicidal agents” (BASF AKTIENGESELLSCHAFT, priority 1997, dated 1999)

What was measured:
[1] = test system: Cyperus iria; assay: Preemergence weed control under flooded paddy conditions, CYPIR (Rice Flatsedge); type: in vivo; details: preemergence weeds, flooded paddy, herbicidal effect rating 0-9, three to four weeks after treatment
[2] = test system: Echinochloa oryzoides (Ard.) Fritsch.; assay: Preemergence weed control under flooded paddy conditions, ECHORC (Watergrass (Calif.)); type: in vivo; details: preemergence weeds, flooded paddy, herbicidal effect rating 0-9, three to four weeks after treatment
[3] = test system: Monochoria vaginalis, Presl.; assay: Preemergence weed control under flooded paddy conditions, MOOVA (Monochoria); type: in vivo; details: preemergence weeds, flooded paddy, herbicidal effect rating 0-9, three to four weeks after treatment
[4] = test system: Oryza sativa, (L.) Tebonnet; assay: Rice tolerance to post-transplant applications under flooded paddy conditions (Example 187), ORYSAT (Rice, Tebonnet); details: herbicidal effect rating 0-9, three to four weeks after treatment
[5] = test system: Sagittaria pygmaea, L.; assay: Preemergence weed control under flooded paddy conditions, SAGPY (Arrowhead (Pygmaea)); type: in vivo; details: preemergence weeds, flooded paddy, herbicidal effect rating 0-9, three to four weeks after treatment
[6] = test system: Cyperus serotinus, Rottb.; assay: Preemergence weed control under flooded paddy conditions, CYPSE (Flatsedge); type: in vivo; details: preemergence weeds, herbicidal effect rating 0-9, three to four weeks after treatment

Compound	CYPIR ([1]; 0.0320 kg/ha)	CYPIR ([1]; 0.0620 kg/ha)	CYPIR ([1]; 0.1250 kg/ha)	CYPIR ([1]; 0.2500 kg/ha)	ECHORC ([2]; 0.0320 kg/ha)	ECHORC ([2]; 0.0620 kg/ha)	ECHORC ([2]; 0.1250 kg/ha)	ECHORC ([2]; 0.2500 kg/ha)	MOOVA ([3]; 0.0320 kg/ha)	MOOVA ([3]; 0.0620 kg/ha)	MOOVA ([3]; 0.1250 kg/ha)	MOOVA ([3]; 0.2500 kg/ha)	ORYSAT ([4]; 0.0320 kg/ha)	ORYSAT ([4]; 0.0620 kg/ha)	ORYSAT ([4]; 0.1250 kg/ha)	ORYSAT ([4]; 0.2500 kg/ha)	SAGPY ([5]; 0.0320 kg/ha)	SAGPY ([5]; 0.0620 kg/ha)	SAGPY ([5]; 0.1250 kg/ha)	SAGPY ([5]; 0.2500 kg/ha)	also measured
Cn1c(C(F)(F)F)cc(=O)n(-c2ccc3snc(C(=O)NS(=O)(=O)Cc4ccc(OC(F)(F)F)cc4)c3c2)c1=O [Example 406, 1,2-Benzisothiazole-3-carboxamide, 5-[3,6-dihydro-3-methyl-2,6-dioxo-4-(trifluoromethyl)-1(2H)-pyrimidinyl]-N-{[p-(trifluoromethoxy)-benzyl]sulfonyl}-]	0.0	4.0	4.0	7.0	6.0	6.0	7.0	7.0	4.0	7.0	9.0	9.0	0.0	0.0	2.0	4.0	3.0	4.0	4.0	4.0	CYPSE ([6]; 0.0320 kg/ha): 0.0; CYPSE ([6]; 0.0620 kg/ha): 0.0; CYPSE ([6]; 0.1250 kg/ha): 3.0; CYPSE ([6]; 0.2500 kg/ha): 6.0
Cn1c(C(F)(F)F)cc(=O)n(-c2ccc3snc(C(Br)S(=O)(=O)c4ccccc4)c3c2)c1=O (stereo not shown) [Example 407, 2,4(1H,3H)-Pyrimidinedione, 3-{3-[bromo(phenylsulfonyl)methyl]-1,2-benzisothiazol-5-yl}-1-methyl-6-(trifluoromethyl)-]	3.0	4.0	9.0	9.0	0.0	3.0	7.0	7.0	6.0	7.0	9.0	9.0	0.0	2.0	3.0	5.0	0.0	2.0	6.0	7.0	CYPSE ([6]; 0.0320 kg/ha): 0.0; CYPSE ([6]; 0.0620 kg/ha): 0.0; CYPSE ([6]; 0.1250 kg/ha): 5.0; CYPSE ([6]; 0.2500 kg/ha): 7.0
Cn1c(C(F)(F)F)cc(=O)n(-c2ccc3snc(/C=N/Nc4ccccc4)c3c2)c1=O [Example 408, 1,2-Benzisothiazole-3-carboxaldehyde, 5-[3,6-dihydro-3-methyl-2,6-dioxo-4-(trifluoromethyl)-1(2H)-pyrimidinyl]-, 3-(phenylhydrazone), (E)-]	6.0	9.0	9.0	9.0	2.0	3.0	6.0	7.0	7.0	9.0	9.0	9.0	0.0	2.0	2.0	3.0	0.0	0.0	4.0	6.0	CYPSE ([6]; 0.0320 kg/ha): 0.0; CYPSE ([6]; 0.0620 kg/ha): 0.0; CYPSE ([6]; 0.1250 kg/ha): 5.0; CYPSE ([6]; 0.2500 kg/ha): 6.0
CN(C)/N=C/c1nsc2ccc(-n3c(=O)cc(C(F)(F)F)n(C)c3=O)cc12 [Example 409, 1,2-Benzisothiazole-3-carboxaldehyde, 5-[3,6-dihydro-3-methyl-2,6-dioxo-4-(trifluoromethyl)-1(2H)-pyrimidinyl]-, 3-(dimethylhydrazone), (E)-]	7.0	9.0	9.0	9.0	3.0	4.0	9.0	9.0	9.0	9.0	9.0	9.0	3.0	5.0	7.0	9.0	2.0	4.0	7.0	9.0	CYPSE ([6]; 0.0320 kg/ha): 2.0; CYPSE ([6]; 0.0620 kg/ha): 5.0; CYPSE ([6]; 0.1250 kg/ha): 9.0; CYPSE ([6]; 0.2500 kg/ha): 9.0
Cn1c(C(F)(F)F)cc(=O)n(-c2ccc3snc(C(=O)OCCCO)c3c2)c1=O [Example 410, 1,2-Benzisothiazole-3-carboxylic acid, 5-[3,6-dihydro-3-methyl-2,6-dioxo-4-(trifluoromethyl)-1(2H)-pyrimidinyl]-, 3-hydroxypropyl ester]	9.0	9.0	9.0	9.0	0.0	0.0	9.0	9.0	9.0	9.0	9.0	9.0	0.0	3.0	5.0	7.0	3.0	7.0	9.0	9.0	CYPSE ([6]; 0.0320 kg/ha): 2.0; CYPSE ([6]; 0.0620 kg/ha): 5.0; CYPSE ([6]; 0.1250 kg/ha): 9.0; CYPSE ([6]; 0.2500 kg/ha): 9.0
CN(Cc1ccc(Cl)cc1)S(=O)(=O)NC(=O)c1nsc2ccc(-n3c(=O)cc(C(F)(F)F)n(C)c3=O)cc12 [Example 420, 1,2-Benzisothiazole-3-carboxamide, N-[(p-chlorobenzyl)methylsulfamoyl]-5-[3,6-dihydro-3-methyl-2,6-dioxo-4-(trifluoromethyl)-1(2H)-pyrimidinyl]-]	2.0	4.0	6.0	6.0	7.0	7.0	7.0	7.0	9.0	9.0	9.0	9.0	0.0	2.0	3.0	5.0	0.0	0.0	2.0	3.0	CYPSE ([6]; 0.2500 kg/ha): 0.0
Cn1c(C(F)(F)F)cc(=O)n(-c2ccc3snc(C(=O)SCc4ccccc4)c3c2)c1=O [Example 421, 1,2-Benzisothiazole-3-thiocarboxylic acid, 5-[3,6-dihydro-3-methyl-2,6-dioxo-4-(trifluoromethyl)-1(2H)-pyrimidinyl]-, S-benzyl ester]	2.0	6.0	8.0	9.0	5.0	5.0	7.0	9.0	5.0	6.0	7.0	9.0	0.0	0.0	0.0	2.0	0.0	0.0	0.0	2.0	CYPSE ([6]; 0.2500 kg/ha): 4.0
CCSC(=O)c1nsc2ccc(-n3c(=O)cc(C(F)(F)F)n(C)c3=O)cc12 [Example 422, 1,2-Benzisothiazole-3-thiocarboxylic acid, 5-[3,6-dihydro-3-methyl-2,6-dioxo-4-(trifluoromethyl)-1(2H)-pyrimidinyl]-, S-ethyl ester]	5.0	6.0	9.0	9.0	5.0	6.0	9.0	9.0	7.0	9.0	9.0	9.0	0.0	0.0	2.0	3.0	0.0	0.0	3.0	6.0	CYPSE ([6]; 0.0320 kg/ha): 0.0; CYPSE ([6]; 0.0620 kg/ha): 5.0
CCOC(=O)c1nsc2cc(F)c(-n3c(=O)cc(C(F)(F)F)n(C)c3=O)cc12 [Example 423, 1,2-Benzisothiazole-3-carboxylic acid, 5-[3,6-dihydro-3-methyl-2,6-dioxo-4-(trifluoromethyl)-1(2H)-pyrimidinyl]-6-fluoro-, ethyl ester]	6.0	7.0	9.0	9.0	6.0	9.0	9.0	9.0	9.0	9.0	9.0	9.0	5.0	6.0	7.0	7.0	9.0	9.0	9.0	9.0	CYPSE ([6]; 0.0320 kg/ha): 9.0; CYPSE ([6]; 0.0620 kg/ha): 9.0; CYPSE ([6]; 0.1250 kg/ha): 9.0; CYPSE ([6]; 0.2500 kg/ha): 9.0
